Experimental data taken from patent US20230019491A1, “PYRIMIDINE TBK/IKKe INHIBITOR COMPOUNDS AND USES THEREOF” (Merck Patent GmbH, priority 2017, published 2023).

Legend:
TBK1 = target: T1, TBK1 (Homo sapiens, UniProt Q9UHD2); test: TBK biochemical assay; details: 10 point 1:4 dose response, 30 uM top concentration, 90 min at 25° C., LabChip EZ Reader II; read-out: TBK1_IC50
T1 sequence (Q9UHD2 1-729): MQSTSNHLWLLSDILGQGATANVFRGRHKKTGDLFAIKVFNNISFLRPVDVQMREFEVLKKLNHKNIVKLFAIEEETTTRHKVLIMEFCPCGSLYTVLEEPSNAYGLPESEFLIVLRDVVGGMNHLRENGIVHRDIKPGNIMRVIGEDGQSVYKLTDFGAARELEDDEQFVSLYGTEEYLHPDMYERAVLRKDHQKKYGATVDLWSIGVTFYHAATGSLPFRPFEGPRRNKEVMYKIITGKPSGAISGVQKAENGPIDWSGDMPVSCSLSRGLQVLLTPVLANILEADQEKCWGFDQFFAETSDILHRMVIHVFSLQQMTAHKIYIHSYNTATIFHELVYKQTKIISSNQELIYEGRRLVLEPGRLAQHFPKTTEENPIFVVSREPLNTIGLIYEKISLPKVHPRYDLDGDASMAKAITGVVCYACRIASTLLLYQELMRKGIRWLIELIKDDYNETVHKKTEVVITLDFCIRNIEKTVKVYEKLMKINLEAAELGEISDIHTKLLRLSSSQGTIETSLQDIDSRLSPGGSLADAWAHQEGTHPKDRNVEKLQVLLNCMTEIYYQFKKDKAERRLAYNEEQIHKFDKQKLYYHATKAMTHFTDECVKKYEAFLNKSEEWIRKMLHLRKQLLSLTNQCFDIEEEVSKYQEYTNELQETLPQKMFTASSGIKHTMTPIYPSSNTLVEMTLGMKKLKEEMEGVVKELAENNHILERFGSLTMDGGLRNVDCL
Method: (§1) Test compounds were transferred into Labcyte polypropylene 384 well plates (P055-25) and diluted to 3 mM using DMSO. […] 100 uM of a reference compound (1 uM final high concentration). Backfilling was performed if necessary so that all wells contain 1% DMSO final:
(§2) add 75 nl DMSO/well into columns 1, 2 and 24 using Labcyte Echo. add 75 nl 1.0 mM staurosporine/well into column 23 using Labcyte Echo ([…]) add 4.5 ul enzyme/well using multidrop dispenser add 3 ul substrate/well using multidrop dispenser incubate at 25° C. in Heidolph incubator for 90 min. add 7.5 ul 2× stop buffer using multidrop dispenser read on labchip ez reader II using TBK1.job
(§3) Raw data files were opened in the Caliper LabChip Reviewer program (Version 3.0.265.0 SP2) and peak assignments were adjusted to reflect “substrate first” with the software's post-run analysis options. A spline-fit baseline was applied using the software's analysis algorithm.

IKKε = target: T2, IKKε (Homo sapiens, UniProt Q14164); test: IKKε biochemical assay; details: 10 point 1:4 dose response, 30 uM top concentration, 90 min at 25° C., LabChip EZ Reader II; read-out: IKKε_IC50
T2 sequence (Q14164 1-716): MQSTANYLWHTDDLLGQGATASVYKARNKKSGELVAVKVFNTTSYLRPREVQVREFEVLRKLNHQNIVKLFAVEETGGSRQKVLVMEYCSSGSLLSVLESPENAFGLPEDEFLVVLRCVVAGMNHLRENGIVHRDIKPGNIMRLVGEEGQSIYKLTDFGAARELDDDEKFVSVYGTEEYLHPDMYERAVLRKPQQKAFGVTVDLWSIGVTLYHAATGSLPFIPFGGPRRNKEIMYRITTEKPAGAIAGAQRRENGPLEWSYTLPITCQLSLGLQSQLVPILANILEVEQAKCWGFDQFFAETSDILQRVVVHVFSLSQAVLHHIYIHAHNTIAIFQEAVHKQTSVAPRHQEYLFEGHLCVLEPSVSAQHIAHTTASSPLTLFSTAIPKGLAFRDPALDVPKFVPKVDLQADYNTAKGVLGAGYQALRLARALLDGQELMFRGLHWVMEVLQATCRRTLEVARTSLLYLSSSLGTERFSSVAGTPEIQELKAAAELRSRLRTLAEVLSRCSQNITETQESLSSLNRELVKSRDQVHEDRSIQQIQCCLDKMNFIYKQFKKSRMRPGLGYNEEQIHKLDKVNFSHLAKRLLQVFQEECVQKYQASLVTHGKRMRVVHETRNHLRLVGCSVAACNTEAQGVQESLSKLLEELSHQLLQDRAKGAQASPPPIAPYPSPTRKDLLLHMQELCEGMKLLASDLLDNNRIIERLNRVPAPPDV
Method: as §1
as §2, with “C.” for “C. in Heidolph incubator”, “buffer” for “buffer using multidrop dispenser”, “IKKε.” for “TBK1.job”
as §3

| SMILES | IC50 (TBK1) [µM] | IC50 (IKKε) [µM] |
| --- | --- | --- |
| COc1nc(Nc2nccc(-c3ccc(OC4CCOCC4)c(C#N)c3)n2)ccc1C(=O)N1C2CCCC1COC2 [Example 16, 5-(2-[[6-methoxy-5-([3-oxa-9-azabicyclo[3.3.1]nonan-9-yl]carbonyl)pyridin-2-yl]amino]pyrimidin-4-yl)-2-(oxan-4-yloxy)benzonitrile] | < 0.1 | < 0.1 |
| COc1nc(Nc2nccc(-c3ccc(OC4CCOCC4)c(C#N)c3)n2)ccc1C(=O)N1C2COCC1CC(O)C2 (stereo not shown) [Example 17, 5-(2-[[5-([7-hydroxy-3-oxa-9-azabicyclo[3.3.1]nonan-9-yl]carbonyl)-6-methoxypyridin-2-yl]amino]pyrimidin-4-yl)-2-(oxan-4-yloxy)benzonitrile] | < 0.1 | < 0.1 |
| COc1nc(Nc2nccc(-c3ccc(OC4CCOCC4)c(C#N)c3)n2)ccc1C(=O)NC1CN2CCC1CC2 (stereo not shown) [Example 21, 6-((4-(3-cyano-4-((tetrahydro-2H-pyran-4-yl)oxy)phenyl)pyrimidin-2-yl)amino)-2-methoxy-N-(quinuclidin-3-yl)nicotinamide] | < 0.1 | < 0.1 |
| CN(C)C(=O)c1ccc(Nc2nccc(-c3ccc(OC4CCOCC4)c(C#N)c3)n2)nc1 [Example 22, 6-([4-[3-cyano-4-(oxan-4-yloxy)phenyl]pyrimidin-2-yl]amino)-N,N-dimethylpyridine-3-carboxamide] | 0.1 to 1 | 0.1 to 1 |
| COc1cc(Nc2nccc(-c3ccc(OC4CCOCC4)c(C#N)n3)n2)ncc1C(=O)N(C)C [Example 24, 6-([4-[6-cyano-5-(oxan-4-yloxy)pyridin-2-yl]pyrimidin-2-yl]amino)-4-methoxy-N,N-dimethylpyridine-3-carboxamide] | 0.1 to 1 | 0.1 to 1 |
| CN(C)C(=O)c1ccc(Nc2nccc(-c3ccc(OC4CCOCC4)c(C#N)n3)n2)nc1 [Example 27, 6-([4-[6-cyano-5-(oxan-4-yloxy)pyridin-2-yl]pyrimidin-2-yl]amino)-N,N-dimethylpyridine-3-carboxamide] | 0.1 to 1 | 0.1 to 1 |
| CN(C)C(=O)c1ccc(Nc2nccc(-c3ccc(OC4CCOCC4)c(C#N)n3)n2)cn1 [Example 28, 5-([4-[6-cyano-5-(oxan-4-yloxy)pyridin-2-yl]pyrimidin-2-yl]amino)-N,N-dimethylpyridine-2-carboxamide] | < 0.1 | < 0.1 |
| COc1nc(Nc2nccc(-c3ccc(OC4CCOCC4)c(C#N)n3)n2)ccc1C(=O)NC1CN2CCC1CC2 (stereo not shown) [Example 29, N-[1-azabicyclo[2.2.2]octan-3-yl]-6-([4-[6-cyano-5-(oxan-4-yloxy)pyridin-2-yl]pyrimidin-2-yl]amino)-2-methoxypyridine-3-carboxamide] | < 0.1 | < 0.1 |
| COc1nc(Nc2nccc(-c3ccc(OC4CCOCC4)c(C#N)n3)n2)ccc1C(=O)N1CCCCC1 [Example 30, 6-[2-([6-methoxy-5-[(piperidin-1-yl)carbonyl]pyridin-2-yl]amino)pyrimidin-4-yl]-3-(oxan-4-yloxy)pyridine-2-carbonitrile] | < 0.1 | < 0.1 |
| COc1nc(Nc2nccc(-c3ccc(OC4CCOCC4)c(C#N)n3)n2)ccc1C(=O)N1CCN(C)CC1 [Example 31, 6-[2-([6-methoxy-5-[(4-methylpiperazin-1-yl)carbonyl]pyridin-2-yl]amino)pyrimidin-4-yl]-3-(oxan-4-yloxy)pyridine-2-carbonitrile] | < 0.1 | < 0.1 |

Now from value to compound:

| IC50 (TBK1) [µM] | IC50 (IKKε) [µM] | SMILES |
| --- | --- | --- |
| < 0.1 | < 0.1 | COc1nc(Nc2nccc(-c3ccc(OC4CCOCC4)c(C#N)c3)n2)ccc1C(=O)N1CC2COCC2C1 (stereo not shown) [Example 12, 5-(2-[[5-([hexahydro-1H-furo[3,4-c]pyrol-5-yl]carbonyl)-6-methoxypyridin-2-yl]amino]pyrimidin-4-yl)-2-(oxan-4-yloxy)benzonitrile] |
| < 0.1 | < 0.1 | COc1nc(Nc2nccc(-c3ccc(OC4CCOCC4)c(C#N)c3)n2)ccc1C(=O)N1CCC(C(=O)O)CC1 [Example 13] |
| < 0.1 | < 0.1 | COc1nc(Nc2nccc(-c3ccc(OC4CCOCC4)c(C#N)c3)n2)ccc1C(=O)NC1CCN(C)CC1 [Example 14, 6-([4-[3-cyano-4-(oxan-4-yloxy)phenyl]pyrimidin-2-yl]amino)-2-methoxy-N-(1-methylpiperidin-4-yl)pyridine-3-carboxamide] |
| < 0.1 | < 0.1 | COc1nc(Nc2nccc(-c3ccc(OC4CCOCC4)c(C#N)c3)n2)ccc1C(=O)N1CCN(CCO)CC1 [Example 15, 5-(2-{5-[4-(2-Hydroxy-ethyl)-piperazine-1-carbonyl]-6-methoxy-pyridin-2-ylamino}-pyrimidin-4-yl)-2-(tetrahydro-pyran-4-yloxy)-benzonitrile] |
| < 0.1 | < 0.1 | COc1nc(Nc2nccc(-c3ccc(OC4CCOCC4)c(C#N)c3)n2)ccc1C(=O)N1CC2CCC1CN2C (stereo not shown) [Example 18, 5-(2-[[6-methoxy-5-([5-methyl-2,5-diazabicyclo[2.2.2]octan-2-yl]carbonyl)pyridin-2-yl]amino]pyrimidin-4-yl)-2-(oxan-4-yloxy)benzonitrile] |
| < 0.1 | < 0.1 | COc1nc(Nc2nccc(-c3ccc(OC4CCOCC4)c(C#N)c3)n2)ccc1C(=O)N[C@H]1[C@@H]2C[C@H]1CN(C)C2 [Example 19, 6-([4-[3-cyano-4-(oxan-4-yloxy)phenyl]pyrimidin-2-yl]amino)-2-methoxy-N-[(1R,5S,6R)-3-methyl-3-azabicyclo[3.1.1]heptan-6-yl]pyridine-3-carboxamide] |
| < 0.1 | < 0.1 | COc1nc(Nc2nccc(-c3ccc(OC4CCOCC4)c(C#N)c3)n2)ccc1C(=O)N[C@@H]1[C@@H]2C[C@H]1CN(C)C2 [Example 20, 6-([4-[3-cyano-4-(oxan-4-yloxy)phenyl]pyrimidin-2-yl]amino)-2-methoxy-N-[(1R,5S,6S)-3-methyl-3-azabicyclo[3.1.1]heptan-6-yl]pyridine-3-carboxamide] |
| < 0.1 | < 0.1 | CN(C)C(=O)c1ccc(Nc2nccc(-c3ccc(OC4CCOCC4)c(C#N)c3)n2)cn1 [Example 23, 5-([4-[3-cyano-4-(oxan-4-yloxy)phenyl]pyrimidin-2-yl]amino)-N,N-dimethylpyridine-2-carboxamide] |
| < 0.1 | < 0.1 | COc1cc(Nc2nccc(-c3ccc(OC4CCOCC4)c(C#N)n3)n2)cnc1C(=O)N(C)C [Example 25, 5-([4-[6-cyano-5-(oxan-4-yloxy)pyridin-2-yl]pyrimidin-2-yl]amino)-3-methoxy-N,N-dimethylpyridine-2-carboxamide] |
| < 0.1 | < 0.1 | COc1nc(Nc2nccc(-c3ccc(OC4CCOCC4)c(C#N)n3)n2)ccc1C(=O)N(C)C [Example 26, 6-([4-[6-cyano-5-(oxan-4-yloxy)pyridin-2-yl]pyrimidin-2-yl]amino)-2-methoxy-N,N-dimethylpyridine-3-carboxamide] |
